Source: ChEMBL document CHEMBL1201862, “PubChem BioAssay data set” (2004)
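Tested at 5 concentrations; 48 h exposure; 96-well plates; endpoints linearly interpolated, else capped at highest concentration. Here, GI50 denotes the concentration required for 50% inhibition of growth.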 Activity calls are given as the source filed them. Cut-off read from the data, not from the text of the source: active = GI50 up to about 1.1 µM and inactive = higher.

Tests used:
Experiment in all cases: NCI tumour cell line growth inhibition, 48 h
CCRF-CEM = tested on: CCRF-CEM
Malme-3M = tested on: Malme-3M
SN12C = tested on: SN12C
HOP-62 = tested on: HOP-62
KM-20L2 = tested on: KM-20L2
DLD-1 = tested on: DLD-1
EKVX = tested on: EKVX
OVCAR-8 = tested on: OVCAR-8
SK-MEL-5 = tested on: SK-MEL-5
OVCAR-3 = tested on: OVCAR-3
786-0 = tested on: 786-0
SNB-78 = tested on: SNB-78
SNB-19 = tested on: SNB-19
M14 = tested on: M14
NCI-H522 = tested on: NCI-H522
OVCAR-4 = tested on: OVCAR-4
HL-60 = tested on: HL-60
HT-29 = tested on: HT-29
NCI-H460 = tested on: NCI-H460
DMS-273 = tested on: DMS-273
LXFL 529 = tested on: LXFL 529
CAKI-1 = tested on: CAKI-1
MOLT-4 = tested on: MOLT-4
ACHN = tested on: ACHN
SK-OV-3 = tested on: SK-OV-3
SF-295 = tested on: SF-295
SF-268 = tested on: SF-268
UACC-257 = tested on: UACC-257
DMS-114 = tested on: DMS-114
UACC-62 = tested on: UACC-62
HCT-116 = tested on: HCT-116
SR = tested on: SR
K562 = tested on: K562
LOX IMVI = tested on: LOX IMVI
SF-539 = tested on: SF-539
HCC 2998 = tested on: HCC 2998
NCI-H226 = tested on: NCI-H226
UO-31 = tested on: UO-31
SW-620 = tested on: SW-620
COLO 205 = tested on: COLO 205
TK-10 = tested on: TK-10
SK-MEL-2 = tested on: SK-MEL-2
A549 = tested on: A549
U-251 = tested on: U-251
OVCAR-5 = tested on: OVCAR-5
IGROV-1 = tested on: IGROV-1
NCI-H23 = tested on: NCI-H23
RPMI-8226 = tested on: RPMI-8226
KM12 = tested on: KM12
A498 = tested on: A498
HCT-15 = tested on: HCT-15

Measured: GI50

COC(=O)[C@]1(C)CCC[C@]2(C)C3CC4OOC3(C=C4C(C)C)CCC21 (stereo partly specified)
inactive: CCRF-CEM 3.01 µM | Malme-3M 20.8 µM | SN12C 16.8 µM | HOP-62 24.5 µM | KM-20L2 17.9 µM | DLD-1 12.7 µM | EKVX 16.7 µM | OVCAR-8 19.8 µM | SK-MEL-5 16.1 µM | OVCAR-3 31.8 µM | 786-0 5.51 µM | SNB-78 16.5 µM | SNB-19 17.4 µM | M14 15.5 µM | NCI-H522 1.78 µM | OVCAR-4 19.9 µM | HL-60 2.07 µM | HT-29 14.7 µM | NCI-H460 12.4 µM | DMS-273 18.5 µM | LXFL 529 13.7 µM | CAKI-1 21.9 µM | MOLT-4 16.9 µM | ACHN 17.4 µM | SK-OV-3 20.1 µM | SF-295 16.3 µM | SF-268 15.4 µM | UACC-257 17.3 µM | DMS-114 13.7 µM | UACC-62 17.1 µM | HCT-116 15.7 µM | SR 9.66 µM | K562 12 µM | LOX IMVI 2.77 µM | SF-539 17 µM | HCC 2998 16.5 µM | NCI-H226 19.6 µM | UO-31 15.2 µM | SW-620 16 µM | COLO 205 19.7 µM | TK-10 23.4 µM | SK-MEL-2 17.2 µM | A549 16.8 µM | U-251 19.8 µM | OVCAR-5 19.6 µM | IGROV-1 16 µM | NCI-H23 18.8 µM | RPMI-8226 12.7 µM | KM12 17.4 µM | A498 11.4 µM
16.5 µM: HCT-15
